Patent publication US12331069B2, “DOT1L degraders and uses thereof” (DANA-FARBER CANCER INSTITUTE, INC., priority 2019, dated 2025)

Legend:
[1] = test system: Molm13 PA and Molm13 RE (acute myeloid leukemia) cells; experiment: Relative cell growth by cell count, Molm13 PA and Molm13 RE cells; format: cell-based; conditions: concentrations between 0 and 10 μM, after 10 days, effect with increased concentration
Experimental: (§1) FIGS. 12A-12D show a Western blot of an assay where MOLM 13 cells were treated with exemplary DOT1L degraders and then the cell numbers were counted over time to confirm the cellular activity of the cells. FIGS. 12A-12D show the relative cell growth (%), based on a cell count of acute myeloid leukemia cells upon the treatment of Molm13 PA cells, Molm13 RE cells, and human leukemia (HL60; as negative control) cells with exemplary DOT1L degraders at various concentrations in for 10 days.
(§2) Molm13 PA (acute myeloid leukemia), Molm13 RE (acute myeloid leukemia), and HL60 (human leukemia) cells were treated with exemplary thalidomide-based, DOT1L degrader compounds DOT1L-6, DOT1L-7, DOT1L-8, and RA190 at various concentrations between 0 and 10 μM. The relative cell growth of the Molm13 PA, Molm13 RE, and HL60 cells was measured to analyze cellular activity after 10 days.

[2] = test system: HL60 (human leukemia) cells; experiment: Relative cell growth by cell count, HL60 cells (negative control line); format: cell-based; conditions: concentrations between 0 and 10 μM, after 10 days, effect with increased concentration
Experimental: as §1, §2

RPN13 = RPN13 (Homo sapiens, UniProt Q16186); experiment: Biochemical (alpha signal) assay for inhibitors that disrupt the binding of RPN13 with poly-ubiquitinylation; conditions: FIG. 9C
Description: The assay was optimized based on concentrations of the target inhibitors, concentrations of compound RA190, and in view of the alpha signal. The conditions for the biochemical assay are recognized by those of ordinary skill in the art.

RPN13, sequence (Q16186 whole entry): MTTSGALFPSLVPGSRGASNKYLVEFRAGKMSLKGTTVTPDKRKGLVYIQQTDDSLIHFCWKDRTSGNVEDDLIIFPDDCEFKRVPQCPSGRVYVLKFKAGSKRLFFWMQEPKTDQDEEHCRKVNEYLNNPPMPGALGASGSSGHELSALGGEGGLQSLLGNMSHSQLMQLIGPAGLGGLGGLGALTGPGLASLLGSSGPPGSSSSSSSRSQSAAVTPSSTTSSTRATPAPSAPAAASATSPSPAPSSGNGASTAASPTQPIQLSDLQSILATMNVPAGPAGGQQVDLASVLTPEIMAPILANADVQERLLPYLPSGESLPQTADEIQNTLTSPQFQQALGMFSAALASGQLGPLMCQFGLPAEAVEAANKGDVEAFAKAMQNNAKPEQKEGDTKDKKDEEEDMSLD

Disruption of the binding of RPN13 with poly-ubiquitinylation (RPN13): can disrupt the binding
Compound: N[C@@H](Cc1ccccc1)C(=O)N1C/C(=C\c2ccc(Cl)c(Cl)c2)C(=O)/C(=C/c2ccc(Cl)c(Cl)c2)C1 [RA190]
Relative cell growth (based on cell count) [1]: reduced cell growth
Relative cell growth (based on cell count) [2]: reduced cell growth
